Results reported in PubChem BioAssay (NCI).
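Method: 48-hour compound exposure of cells in 96-well plates, five concentrations, linear interpolation of endpoints. TGI marks complete inhibition of growth.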

Key:
Assay in all cases: growth of human tumour cells (NCI), 48 h
[1] = test system: SK-MEL-2 melanoma
[2] = test system: UACC-62 melanoma
[3] = test system: HCT-15 colon
[4] = test system: SF-539 CNS
[5] = test system: MDA-N
[6] = test system: BT-549 breast
[7] = test system: M14 melanoma
[8] = test system: LOX IMVI melanoma
[9] = test system: OVCAR-4 ovarian
[10] = test system: MCF7 breast

Measured: TGI

O=C(Nc1ccccc1F)c1cc2ccc(O)cc2oc1=Nc1ccccc1F
11.3 µM: [10]
4.16 µM: [8]
16.5 µM: [4]
5.9 µM: [2]
4.05 µM: [1]
5.57 µM: [7]
6.95 µM: [6]
6.28 µM: [3]
5.27 µM: [5]
3.94 µM: [9]

CSc1c(C#N)c(N)n(-c2ccc(C)cc2)c(=O)c1C#N
> 100 µM: all assays above

COc1ccc(-c2c3c([nH]c(=S)c2C#N)CC(C)(C)CC3=O)cc1
> 100 µM: all assays above

Cc1cc2c([N+](=O)[O-])cc3c(c2o1)C(=O)C=CC3=O
35.3 µM: [1]
30.2 µM: [9]
30.4 µM: [6]
> 36 µM: [8]
28.9 µM: [2]
11.2 µM: [10]
31.3 µM: [4]
28 µM: [5]
37.1 µM: [3]
10.6 µM: [7]

Cc1ccc(OCCn2cc(Nc3ccccc3)c(=O)n(CCOc3ccc(C)cc3)c2=O)cc1
> 100 µM: all assays above

COC(=O)CCc1cc(OC)c2c(c1)[C@H](C(=O)OC)[C@@H](c1ccc(O)c(OC)c1)O2
84.6 µM: [1]
44.6 µM: [5]
> 100 µM: all other assays above

O=C(Oc1cc(=O)c(OC(=O)c2ccccc2)co1)c1ccccc1
> 100 µM: all assays above

CNc1ncnc2c1cnn2COCC(O)CO (stereo not given)
> 100 µM: all assays above

O=c1ccn(C2OC(CO)C(P(=O)(O)O)C2O)c(=O)[nH]1 (stereo not given)
> 100 µM: all assays above

Nc1nc(Cl)cc(NCC2(CO)CCC(CCc3ccccc3)C2)n1 (stereo not given)
31.2 µM: [9]
34 µM: [3]
34.5 µM: [1]
28.1 µM: [5]
33.4 µM: [4]
30.3 µM: [6]
28.3 µM: [2]
26.3 µM: [8]
32.7 µM: [10]
27.8 µM: [7]

O=C(CNc1c(Cl)cccc1Cl)NC1C=Cc2ccc(S(=O)(=O)Nc3c(Cl)cccc3Cl)cc2C1=O (stereo not given)
> 100 µM: all assays above

O=C1NCC(NC(=O)C(F)(F)F)c2c(Br)sc(Br)c21 (stereo not given)
> 100 µM: all assays above

COc1cc(-c2cc(=O)c3cc4c(=O)cc(-c5cc(OC)c(OC)c(OC)c5)oc4cc3o2)cc(OC)c1OC
> 64.5 µM: [2]
41.3 µM: [1]
86.2 µM: [6]
> 100 µM: all other assays above

NC(CC1=CS(=O)(=O)c2ccc(Cl)cc21)C(=O)O (stereo not given)
> 100 µM: all assays above

COc1nc2ncc([C@@H](OC(C)=O)[C@@H](COC(C)=O)OC(C)=O)nc2c(=O)[nH]1
> 100 µM: all assays above
